Experimental data from patent US20240173307A1, “MODULATORS OF THE INTEGRATED STRESS PATHWAY” (Calico Life Sciences LLC, priority 2017, published 2024).

Test system: HEK293T cells carrying the ATF4 luciferase reporter
Experiment: ATF4-Luc assay (in vitro model of vanishing white matter disease)
Assay type: cell-based
Details: Homo sapiens, HEK-293T, 1 μg/mL tunicamycin, 7 hours
Method: In order to test exemplary compounds of the invention in a cellular context, a stable VWMD cell line was first constructed. The ATF4 reporter was prepared by fusing the human full-length ATF4 5′-UTR (NCBI Accession No. BCO22088.2) in front of the firefly luciferase (FLuc) coding sequence lacking the initiator methionine as described in Sidrauski et al (eLife 2013). The construct was used to produce recombinant retroviruses using standard methods and the resulting viral supernatant was used to transduce HEK293T cells, which were then subsequently selected with puromycin to generate a stable cell line.
HEK293T cells carrying the ATF4 luciferase reporter were plated on polylysine coated 384-well plates (Greiner Bio-one) at 30,000 cells per well. Cells were treated the next day with 1 μg/mL tunicamycin and 200 nM of a compound of Formula (I) for 7 hours. Luminescence was measured using One Glo (Promega) as specified by the manufacturer. Cells were maintained in DMEM with L-glutamine supplemented with 10% heat-inactivated FBS (Gibco) and Antibiotic-Antimycotic solution (Gibco).
Table 2 below summarizes the EC50 data obtained using the ATF4-Luc assay for exemplary compounds of the invention.

SMILES | EC50 [µM]
O=C(O)Cn1c(CNC(=O)C23CC(NC(=O)COc4ccc(Cl)c(F)c4)(C2)C3)nc2cc(F)c(F)cc21 [Compound 328, {2-[({3-[2-(4-chloro-3-fluorophenoxy)acetamido]bicyclo[1.1.1]pentane-1-carbonyl}amino)methyl]-5,6-difluoro-1H-benzimidazol-1-yl}acetic acid] | 1 to 2
O=C(COc1ccc(Cl)c(F)c1)NC12CCC(C(=O)NCc3ccc(OC(F)F)cn3)(C1)C2 [Compound 256, 4-[2-(4-chloro-3-fluorophenoxy)acetamido]-N-{[5-(difluoromethoxy)pyridin-2-yl]methyl}bicyclo[2.1.1]hexane-1-carboxamide] | 1 to 2
O=C(COc1ccc(Cl)c(Cl)c1)NC12CC(C(=O)Nc3ccncc3)(C1)C2 [Compound 296, 3-[2-(3,4-dichlorophenoxy)acetamido]-N-(pyridin-4-yl)bicyclo[1.1.1]pentane-1-carboxamide] | < 0.25
O=C(COc1ccc(Cl)c(F)c1)NC12CC(C(=O)NCCc3c[nH]c4ccccc34)(C1)C2 [Compound 194, 3-[2-(4-chloro-3-fluorophenoxy)acetamido]-N-[2-(1H-indol-3-yl)ethyl]bicyclo[1.1.1]pentane-1-carboxamide] | < 0.25
O=C(COc1ccc(Cl)c(F)c1)NC12CCC(C(=O)Nc3ccc(Cl)cc3)(C1)C2 [Compound 286, 4-[2-(4-chloro-3-fluorophenoxy)acetamido]-N-(4-chlorophenyl)bicyclo[2.1.1]hexane-1-carboxamide] | > 2
O=C(COc1ccc(Cl)c(F)c1)NC12CC(C(=O)Nc3ccc(C(F)F)cn3)(C1)C2 [Compound 298, 3-[2-(4-chloro-3-fluorophenoxy)acetamido]-N-[5-(difluoromethyl)pyridin-2-yl]bicyclo[1.1.1]pentane-1-carboxamide] | < 0.25
O=C(COc1ccc(Cl)c(F)c1)NC12CCC(C(=O)NCc3nc4cc(F)c(F)cc4[nH]3)(CC1)CC2 [Compound 324, 4-[2-(4-chloro-3-fluorophenoxy)acetamido]-N-[(5,6-difluoro-1H-benzimidazol-2-yl)methyl]bicyclo[2.2.2]octane-1-carboxamide] | < 0.25
CC(O)(CNC(=O)C12CC(NC(=O)COc3ccc(Cl)c(F)c3)(C1)C2)c1ccc(Cl)cc1 (centres unmarked) [Compound 317, 3-[2-(4-chloro-3-fluorophenoxy)acetamido]-N-[2-(4-chlorophenyl)-2-hydroxypropyl]bicyclo[1.1.1]pentane-1-carboxamide] | 1 to 2
O=C(COc1ccc(Cl)c(Cl)c1)NC12CCC(C(=O)NCc3ccc(C(F)(F)F)cc3)(CC1)[C@@H](O)C2 (single isomer, unassigned) [Compound 264] | < 0.25
O=C(COc1ccc(Cl)c(F)c1)NC12CC(C(=O)NCCCc3ccccn3)(C1)C2 [Compound 254, 3-[2-(4-chloro-3-fluorophenoxy)acetamido]-N-[3-(pyridin-2-yl)propyl]bicyclo[1.1.1]pentane-1-carboxamide] | 1 to 2
O=C(COc1ccc(Cl)c(F)c1)NC12CCC(C(=O)Nc3ccc(OC(F)(F)F)cn3)(CC1)CC2 [Compound 279, 4-[2-(4-chloro-3-fluorophenoxy)acetamido]-N-[5-(trifluoromethoxy)pyridin-2-yl]bicyclo[2.2.2]octane-1-carboxamide] | < 0.25
CCOc1cnc(NC(=O)C23CC(NC(=O)COc4ccc(Cl)c(F)c4)(C2)C3)cn1 [Compound 307, 3-[2-(4-chloro-3-fluorophenoxy)acetamido]-N-(5-ethoxypyrazin-2-yl)bicyclo[1.1.1]pentane-1-carboxamide] | 0.25 to 0.5
O=C(COc1ccc(Cl)c(F)c1)NC12CC(C(=O)Nc3ccc(OC(F)(F)F)cn3)(C1)C2 [Compound 287, 3-[2-(4-chloro-3-fluorophenoxy)acetamido]-N-[5-(trifluoromethoxy)pyridin-2-yl]bicyclo[1.1.1]pentane-1-carboxamide] | < 0.25
O=C(COc1ccc(Cl)c(F)c1)NC12CCC(C(=O)Nc3ccc(OC(F)(F)F)nc3)(CC1)OC2 [Compound 341, 4-[2-(4-chloro-3-fluorophenoxy)acetamido]-N-[6-(trifluoromethoxy)pyridin-3-yl]-2-oxabicyclo[2.2.2]octane-1-carboxamide] | < 0.25
O=C(COc1ccc(Cl)c(Cl)c1)NC12CC(C(=O)Nc3ccc(OC(F)(F)F)cn3)(C1)C2 [Compound 291, 3-[2-(3,4-dichlorophenoxy)acetamido]-N-[5-(trifluoromethoxy)pyridin-2-yl]bicyclo[1.1.1]pentane-1-carboxamide] | < 0.25
O=C(COc1ccc(Cl)c(Cl)c1)NC12CCC(C(=O)Nc3ccc(OC(F)(F)F)cn3)(C1)C2 [Compound 292, 4-[2-(3,4-dichlorophenoxy)acetamido]-N-[5-(trifluoromethoxy)pyridin-2-yl]bicyclo[2.1.1]hexane-1-carboxamide] | < 0.25

SMILES | EC50 [µM]
O=C(COc1ccc(Cl)c(F)c1)NC12CCC(C(=O)NCc3ccc(C(F)(F)F)cn3)(CC1)C[C@H]2O (single isomer, unassigned) [Compound 271] | < 0.25
O=C(COc1ccc(Cl)c(F)c1)NC12CC(C(=O)NC(CO)c3ccc(Cl)cc3)(C1)C2 (centres unmarked) [Compound 318, 3-[2-(4-chloro-3-fluorophenoxy)acetamido]-N-[1-(4-chlorophenyl)-2-hydroxyethyl]bicyclo[1.1.1]pentane-1-carboxamide] | > 2
O=C(COc1ccc(Cl)c(F)c1)NC12CCC(C(=O)NCc3ccc(C(F)(F)F)cc3)(CC1)[C@H](O)C2 (single isomer, unassigned) [Compound 267] | < 0.25
O=C(COc1ccc(Cl)c(F)c1)NC12CCC(C(=O)NCc3ccc(C(F)(F)F)cn3)(CC1)CC2 [Compound 261, 4-[2-(4-chloro-3-fluorophenoxy)acetamido]-N-{[5-(trifluoromethyl)pyridin-2-yl]methyl}bicyclo[2.2.2]octane-1-carboxamide] | < 0.25
O=C(COc1ccc(Cl)c(F)c1)NC12CCC(C(=O)NCc3ccc(Cl)cc3)(CC1)CC2 [Compound 260, 4-[2-(4-chloro-3-fluorophenoxy)acetamido]-N-[(4-chlorophenyl)methyl]bicyclo[2.2.2]octane-1-carboxamide] | < 0.25
O=C(COc1ccc(Cl)c(F)c1)NC12CC(C(=O)NCc3nc4cc(F)c(F)cc4[nH]3)(C1)C2 [Compound 331, 3-[2-(4-chloro-3-fluorophenoxy)acetamido]-N-[(5,6-difluoro-1H-benzimidazol-2-yl)methyl]bicyclo[1.1.1]pentane-1-carboxamide] | < 0.25
O=C(COc1ccc(Cl)c(F)c1)NC12CCC(C(=O)NCc3ccc(C(F)(F)F)cc3)(CC1)C[C@H]2O (single isomer, unassigned) [Compound 269] | < 0.25
O=C(COc1ccc(C(F)(F)F)nc1)NC12CC(C(=O)Nc3ccc(OC(F)(F)F)cn3)(C1)C2 [Compound 297, N-[5-(trifluoromethoxy)pyridin-2-yl]-3-(2-{[6-(trifluoromethyl)pyridin-3-yl]oxy}acetamido)bicyclo[1.1.1]pentane-1-carboxamide] | < 0.25
O=C(COc1ccc(Cl)c(Cl)c1)NC12CC(C(=O)Nc3ccccn3)(C1)C2 [Compound 289, 3-[2-(3,4-dichlorophenoxy)acetamido]-N-(pyridin-2-yl)bicyclo[1.1.1]pentane-1-carboxamide] | < 0.25
O=C(COc1ccc(Cl)c(F)c1)NC12CCC(C(=O)Nc3ccc(C(F)(F)F)cn3)(CC1)C(O)C2 (centres unmarked) [Compound 316, 4-[2-(4-chloro-3-fluorophenoxy)acetamido]-2-hydroxy-N-[5-(trifluoromethyl)pyridin-2-yl]bicyclo[2.2.2]octane-1-carboxamide] | 0.5 to 1
O=C(COc1ccc(Cl)c(F)c1)NC12CC(C(=O)Nc3ccccn3)(C1)C2 [Compound 290, 3-[2-(4-chloro-3-fluorophenoxy)acetamido]-N-(pyridin-2-yl)bicyclo[1.1.1]pentane-1-carboxamide] | < 0.25
COc1ccc(CNC(=O)C23CC(NC(=O)COc4ccc(Cl)c(F)c4)(C2)C3)nn1 [Compound 322, 3-[2-(4-chloro-3-fluorophenoxy)acetamido]-N-[(6-methoxypyridazin-3-yl)methyl]bicyclo[1.1.1]pentane-1-carboxamide] | > 2
O=C(COc1ccc(Cl)c(F)c1)NC12CCC(C(=O)NCC(=O)c3ccc(Cl)c(F)c3)(CC1)[C@@H](O)C2 [Compound 326, (2S)-4-[2-(4-chloro-3-fluorophenoxy)acetamido]-N-[2-(4-chloro-3-fluorophenyl)-2-oxoethyl]-2-hydroxybicyclo[2.2.2]octane-1-carboxamide] | < 0.25
O=C(COc1ccc(Cl)c(F)c1)NC12CCC(C(=O)NCc3ccc(C(F)(F)F)cc3)(CC1)CC2O (centres unmarked) [Compound 274, 4-[2-(4-chloro-3-fluorophenoxy)acetamido]-3-hydroxy-N-{[4-(trifluoromethyl)phenyl]methyl}bicyclo[2.2.2]octane-1-carboxamide] | < 0.25
O=C(COc1ccc(Cl)c(F)c1)NC12CCC(C(=O)NCc3ccc(C(F)(F)F)cc3)(CC1)[C@@H](O)C2 (single isomer, unassigned) [Compound 266] | < 0.25
O=C(COc1ccc(Cl)c(F)c1)NC12CCC(C(=O)NCc3ccc(Cl)c(F)c3)(CC1)OC2 [Compound 334, 4-[2-(4-chloro-3-fluorophenoxy)acetamido]-N-[(4-chloro-3-fluorophenyl)methyl]-2-oxabicyclo[2.2.2]octane-1-carboxamide] | 0.25 to 0.5
